Patent US12227501B2, “3-amino-2-[2-(acylamino)pyridin-4-yl]-1,5,6,7-tetrahydro-4h-pyrrolo[3,2-c]pyridin-4-one as CSNK1 inhibitors” (Bayer Aktiengesellschaft, priority 2019, dated 2025)
pIC50: −log10 of the molar value. Values joined by “and” are separate entries in the source; they are usually repeats but may differ in a detail not shown here. Equal values may be shown once. Where a name gives a salt, the structure may show the parent alone. Read-outs that look alike come from different tables or passages of the source.

Experiments:
Assay type in all cases: biochemical
human CSNK1A1 [1] = target: T1, human CSNK1A1 (Homo sapiens (Human), UniProt P48729); test: CSNK1A1 High ATP Assay (ADP-Glo, 1 mM ATP); settings: read-out: CSNK1A1 high ATP assay IC50 [mol/l] (median)
In short: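 Kinase activity taken as ADP generated, quantified by ADP-Glo luminescence after 1 h ATP depletion and 1 h detection at 22 °C. Enzyme is GST–full-length human CSNK1A1 (insect cell-expressed), pre-bound to compound for 15 min, with phosphopeptide substrate and 1 mM ATP.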

human CSNK1D = human CSNK1D (Homo sapiens (Human), UniProt P48730); test: CSNK1D Assay (ADP-Glo, 1 μM ATP); settings: read-out: CSNK1D IC50 [mol/l] (median)
In short: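 Activity is read as ADP produced, by ADP-Glo luminescence after 1 h steps at 22 °C. The reaction uses 1 μM ATP, a biotinylated peptide and insect-cell-expressed GST–CSNK1D (about 0.5 ng/μL) in pH 7.5 HEPES buffer, with 15 min compound–enzyme preincubation.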

human CSNK1A1 [2] = target: T1, human CSNK1A1; test: CSNK1A1 Assay 2 (ADP-Glo, 1 μM ATP); settings: substrate biotin-Ahx-KRRRAL-pS-VASLPGL, read-out: CSNK1A1 Assay 2 IC50 [mol/l] (median)
In short: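 Full-length human CSNK1A1 as an N-terminal GST fusion (baculovirus/insect cells) with biotinylated peptide substrate biotin-Ahx-KRRRAL-pS-VASLPGL and 1 μM ATP, in HEPES pH 7.5 buffer. Compounds were pre-incubated with enzyme (~0.0375 ng/μL) for 15 min at 22 °C. Generated ADP was read by ADP-Glo luminescence as the activity measure.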

[3] = target: wild-type Epidermal Growth Factor Receptor (EGFR) (Homo sapiens (Human), UniProt P00533); test: WT-EGFR Kinase Assay (TR-FRET, 2 mM ATP)
[4] = EGFR Wildtyp- 2 mM ATP IC50 [mol/l] (median)
[5] = read-out: EGFR Wildtyp- 2 mM ATP IC50 [mol/l] (median)

T1 sequence (P48729 whole entry): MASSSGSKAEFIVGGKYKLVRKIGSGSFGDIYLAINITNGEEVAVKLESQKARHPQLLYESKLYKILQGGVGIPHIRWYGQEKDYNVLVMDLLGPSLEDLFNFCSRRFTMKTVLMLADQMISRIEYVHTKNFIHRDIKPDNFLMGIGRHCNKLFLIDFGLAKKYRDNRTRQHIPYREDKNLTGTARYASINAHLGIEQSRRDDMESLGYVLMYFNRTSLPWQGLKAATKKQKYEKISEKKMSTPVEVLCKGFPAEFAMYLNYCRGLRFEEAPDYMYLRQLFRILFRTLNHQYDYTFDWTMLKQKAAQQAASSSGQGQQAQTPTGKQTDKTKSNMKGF
Sequence of wild-type Epidermal Growth Factor Receptor (EGFR) (P00533 669-1210): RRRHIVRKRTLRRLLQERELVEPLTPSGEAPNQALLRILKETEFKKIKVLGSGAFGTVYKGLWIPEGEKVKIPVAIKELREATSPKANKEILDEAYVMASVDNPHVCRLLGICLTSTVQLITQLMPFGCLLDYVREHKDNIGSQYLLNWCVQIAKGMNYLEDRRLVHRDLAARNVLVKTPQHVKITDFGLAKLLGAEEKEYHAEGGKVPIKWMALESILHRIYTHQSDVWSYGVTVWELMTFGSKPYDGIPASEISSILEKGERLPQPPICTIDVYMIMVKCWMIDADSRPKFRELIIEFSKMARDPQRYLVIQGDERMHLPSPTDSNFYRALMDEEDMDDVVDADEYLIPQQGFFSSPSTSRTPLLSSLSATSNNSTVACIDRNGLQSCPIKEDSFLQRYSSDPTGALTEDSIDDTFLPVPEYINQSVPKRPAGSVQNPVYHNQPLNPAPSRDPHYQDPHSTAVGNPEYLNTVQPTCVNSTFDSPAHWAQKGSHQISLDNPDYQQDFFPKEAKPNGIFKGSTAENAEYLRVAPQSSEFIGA
Sequence of human CSNK1D (P48730 whole entry): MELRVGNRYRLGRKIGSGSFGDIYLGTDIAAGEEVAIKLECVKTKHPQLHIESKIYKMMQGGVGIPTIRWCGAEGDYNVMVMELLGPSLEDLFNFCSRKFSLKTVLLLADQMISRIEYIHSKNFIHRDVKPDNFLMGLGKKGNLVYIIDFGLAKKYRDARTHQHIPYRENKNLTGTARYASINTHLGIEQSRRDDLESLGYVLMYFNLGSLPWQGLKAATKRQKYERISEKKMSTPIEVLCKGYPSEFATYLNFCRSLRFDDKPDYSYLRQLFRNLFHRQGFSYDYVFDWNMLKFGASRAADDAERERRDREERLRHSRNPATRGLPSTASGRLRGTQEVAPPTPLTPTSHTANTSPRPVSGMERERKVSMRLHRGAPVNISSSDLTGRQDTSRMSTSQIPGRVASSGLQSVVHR

Compound | pIC50 (human CSNK1A1 [1]) | pIC50 (human CSNK1D) | pIC50 (human CSNK1A1 [2]) | pIC50 [3, 4] | pIC50 [3, 5] | IC50 [3, 4] | IC50 (human CSNK1A1 [1])
CC1(C)Cc2[nH]c(-c3ccnc(NC(=O)C(CN)c4ccc(F)cc4)c3)c(Nc3ccccc3)c2C(=O)N1 (racemic) [Example 139, 3-amino-N-[4-(3-anilino-6,6-dimethyl-4-oxo-4,5,6,7-tetrahydro-1H-pyrrolo[3,2-c]pyridin-2-yl)pyridin-2-yl]-2-(4-fluorophenyl)propanamide-hydrogen chloride salt (Racemate)] | 7.38 | 8.11 | 8.49 | 6.17 | – | – | –
Cc1ccccc1Nc1c(-c2ccnc(NC(=O)C(CC(F)F)c3ccc(F)cc3)c2)[nH]c2c1C(=O)NC1(CCC1)C2 (racemic) [Example 143, 4,4-difluoro-2-(4-fluorophenyl)-N-{4-[3′-(2-methylanilino)-4′-oxo-1′,4′,5′,7′-tetrahydrospiro[cyclobutane-1,6′-pyrrolo[3,2-c]pyridin]-2′-yl]pyridin-2-yl}butanamide (Racemate)] | 7.49 | 7.74 | 7.78 | < 4.70 | – | – | –
O=C1NC2(CC2)Cc2[nH]c(-c3ccnc(NC(=O)C(CC(F)F)c4ccc(F)cc4)c3)c(Nc3ccccc3)c21 (racemic) [Example 147, N-[4-(3′-anilino-4′-oxo-1′,4′,5′,7′-tetrahydrospiro[cyclopropane-1,6′-pyrrolo[3,2-c]pyridin]-2′-yl)pyridin-2-yl]-4,4-difluoro-2-(4-fluorophenyl)butanamide (Racemate)] | 7.72 | 7.94 | 8.21 | 6.57 | – | – | –
CC(C(=O)Nc1cc(-c2[nH]c3c(c2Nc2ccccc2)C(=O)N(C)C2(CCC2)C3)ccn1)c1ccc(F)cc1 (racemic) [Example 157, N-[4-(3′-anilino-5′-methyl-4′-oxo-1′,4′,5′,7′-tetrahydrospiro[cyclobutane-1,6′-pyrrolo[3,2-c]pyridin]-2′-yl)pyridin-2-yl]-2-(4-fluorophenyl)propanamide (Racemate)] | 7.29 | 7.80 | 8.06 | < 4.70 | – | – | –
CN1C(=O)c2c([nH]c(-c3ccnc(NC(=O)C(CC(F)F)c4ccc(F)cc4)c3)c2Nc2ccccc2)CC12CCC2 (racemic) [Example 160, N-[4-(3′-anilino-5′-methyl-4′-oxo-1′,4′,5′,7′-tetrahydrospiro[cyclobutane-1,6′-pyrrolo[3,2-c]pyridin]-2′-yl)pyridin-2-yl]-4,4-difluoro-2-(4-fluorophenyl)butanamide (Racemate)] | 7.57 | 7.80 | 7.88 | < 4.70 | – | – | –
CC(C(=O)Nc1cc(-c2[nH]c3c(c2Nc2ccccc2)C(=O)NCC3)ccn1)c1ccc(F)cc1 (single isomer, unassigned) [Example 10, N-[4-(3-anilino-4-oxo-4,5,6,7-tetrahydro-1H-pyrrolo[3,2-c]pyridin-2-yl)pyridin-2-yl]-2-(4-fluorophenyl)propanamide] | 7.59 | 7.85 | 8.34 | 4.91 | – | – | –
CC(C(=O)Nc1cc(-c2[nH]c3c(c2Nc2ccccc2)C(=O)NCC3)ccn1)c1ccc(F)cc1 (single isomer, unassigned) [Example 11, N-[4-(3-anilino-4-oxo-4,5,6,7-tetrahydro-1H-pyrrolo[3,2-c]pyridin-2-yl)pyridin-2-yl]-2-(4-fluorophenyl)propanamide] | 5.40 | 7.51 | 7.52 | 5.64 | – | – | –
CC(C(=O)Nc1cc(-c2[nH]c3c(c2Nc2ccccc2Cl)C(=O)NCC3)ccn1)c1ccc(F)cc1 (single isomer, unassigned) [Example 15, N-{4-[3-(2-chloroanilino)-4-oxo-4,5,6,7-tetrahydro-1H-pyrrolo[3,2-c]pyridin-2-yl]pyridin-2-yl}-2-(4-fluorophenyl)propanamide] | 4.97 and < 5.24 | 7.41 | 7.37 | < 4.70 | – | – | –
CC(C(=O)Nc1cc(-c2[nH]c3c(c2Nc2ccccc2Cl)C(=O)NCC3)ccn1)c1ccc(F)cc1 (single isomer, unassigned) [Example 16, N-{4-[3-(2-chloroanilino)-4-oxo-4,5,6,7-tetrahydro-1H-pyrrolo[3,2-c]pyridin-2-yl]pyridin-2-yl}-2-(4-fluorophenyl)propanamide] | 6.99 | 8.10 | 8.59 | – | < 4.70 | – | –
CN1CCc2[nH]c(-c3ccnc(NC(=O)C(CO)c4ccc(F)cc4)c3)c(Nc3ccccc3)c2C1=O (single isomer, unassigned) [Example 18, N-[4-(3-anilino-5-methyl-4-oxo-4,5,6,7-tetrahydro-1H-pyrrolo[3,2-c]pyridin-2-yl)pyridin-2-yl]-2-(4-fluorophenyl)-3-hydroxypropanamide] | 5.75 | 7.35 | 7.69 | 4.83 | – | – | –
CN1CCc2[nH]c(-c3ccnc(NC(=O)C(CO)c4ccc(F)cc4)c3)c(Nc3ccccc3)c2C1=O (single isomer, unassigned) [Example 19, N-[4-(3-anilino-5-methyl-4-oxo-4,5,6,7-tetrahydro-1H-pyrrolo[3,2-c]pyridin-2-yl)pyridin-2-yl]-2-(4-fluorophenyl)-3-hydroxypropanamide] | 7.97 | 8.18 | 8.77 | – | – | > 20 µM (5×) and 16.1 µM | –
CCN1CCc2[nH]c(-c3ccnc(NC(=O)C(C)c4ccc(F)cc4)c3)c(Nc3ccccc3)c2C1=O (single isomer, unassigned) [Example 25, N-[4-(3-anilino-5-ethyl-4-oxo-4,5,6,7-tetrahydro-1H-pyrrolo[3,2-c]pyridin-2-yl)pyridin-2-yl]-2-(4-fluorophenyl)propanamide] | 4.90 and < 4.70 | 7.05 | 7.26 | < 4.70 | – | – | –
CCN1CCc2[nH]c(-c3ccnc(NC(=O)C(C)c4ccc(F)cc4)c3)c(Nc3ccccc3)c2C1=O (single isomer, unassigned) [Example 26, N-[4-(3-anilino-5-ethyl-4-oxo-4,5,6,7-tetrahydro-1H-pyrrolo[3,2-c]pyridin-2-yl)pyridin-2-yl]-2-(4-fluorophenyl)propanamide] | 6.54 | 7.64 | 8.39 | – | < 4.70 | – | –
CC(C(=O)Nc1cc(-c2[nH]c3c(c2Nc2ccccc2)C(=O)NC(C)(C)C3)ccn1)c1ccc(F)cc1 (single isomer, unassigned) [Example 39, N-[4-(3-anilino-6,6-dimethyl-4-oxo-4,5,6,7-tetrahydro-1H-pyrrolo[3,2-c]pyridin-2-yl)pyridin-2-yl]-2-(4-fluorophenyl)propanamide] | – | 6.67 | 6.75 | < 4.70 | – | – | 2.84 µM and 2.9 µM and > 20 µM (2×)
CC(C(=O)Nc1cc(-c2[nH]c3c(c2Nc2ccccc2F)C(=O)N(C)CC3)ccn1)c1ccc(F)cc1 (single isomer, unassigned) [Example 42, N-{4-[3-(2-fluoroanilino)-5-methyl-4-oxo-4,5,6,7-tetrahydro-1H-pyrrolo[3,2-c]pyridin-2-yl]pyridin-2-yl}-2-(4-fluorophenyl)propanamide] | 7.24 | 8.31 | 8.62 | – | < 4.70 | – | –
